The test addresses Human DAAO (Homo sapiens, UniProt P14920). Kind of test: D-Amino Acid Oxidase enzyme assay (D-serine, horseradish peroxidase/Amplex Red coupled fluorescence). The class given is biochemical. The note with it: D-serine 5 mM, pH 7.4. As for the experimental part: DAAO enzyme activity was measured using the substrate D-serine at its Michaelis-Menton Km of 5 mM. The rate of oxidation is measured as a rate of production of hydrogen peroxide, which was detected using the enzyme horseradish peroxidase (Sigma cat. No. P-8375). This coupled reaction uses the enzyme substrate Amplex Red (Molecular Probes), which is converted to the fluorescent reaction product, resorufin (excitation 530-560 nm; emission ˜590 nm). Although DAAO has a higher pH optimum, all reagents were prepared in 50 mM sodium phosphate buffer at pH 7.4 and inhibition curves were generated at this pH.
The final concentrations of components in 200 μl total volume per well (black clear-bottom 96-well plate, Costar) were:
(a) Horseradish peroxidase: 4 Units per mL
(d) Amplex Red reagent: 50 uM
The reactions were initiated by addition of DAAO enzyme and the fluorescence was monitored. H2O2 was added at 16 uM final concentration to a control well on each plate to test for compound interference with a coupled enzyme. Inhibition curves were generated in the presence of varying concentrations of the inhibitor and IC50 values were calculated for each inhibitor.

As a reminder, the IC50 is the concentration needed to halve the response being measured. Read a low IC50 as greater potency.

Human DAAO, sequence (P14920 whole entry): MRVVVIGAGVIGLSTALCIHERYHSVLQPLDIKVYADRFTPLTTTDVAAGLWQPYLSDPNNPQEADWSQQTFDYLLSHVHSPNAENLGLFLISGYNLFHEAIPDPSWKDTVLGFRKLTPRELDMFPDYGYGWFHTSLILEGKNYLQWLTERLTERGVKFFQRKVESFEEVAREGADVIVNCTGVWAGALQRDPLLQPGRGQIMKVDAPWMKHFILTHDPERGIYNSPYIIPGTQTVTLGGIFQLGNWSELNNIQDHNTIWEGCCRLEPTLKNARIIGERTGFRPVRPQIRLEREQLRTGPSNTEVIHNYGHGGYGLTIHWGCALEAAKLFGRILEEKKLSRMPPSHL

`O=C(O)c1cc2c([nH]1)CCC2Cc1ccc(Cl)cc1` (single isomer, unassigned) [Compound 16, 4-(4-chlorobenzyl)-1,4,5,6-tetrahydrocyclopenta[b]pyrrole-2-carboxylic acid] had a concentration for half-maximal inhibition (IC50) of at most 100 µM.

For `O=C(O)c1cc2c([nH]1)CCC2CCc1ccccc1` (single isomer, unassigned) [Compound 19, 4-phenethyl-1,4,5,6-tetrahydrocyclopenta[b]pyrrole-2-carboxylic acid], the IC50 was at most 1 µM.

In turn, `O=C(O)c1cc2c([nH]1)CCC2CCc1ccccc1` (single isomer, unassigned) [Compound 20, 4-phenethyl-1,4,5,6-tetrahydrocyclopenta[b]pyrrole-2-carboxylic acid] yielded an IC50 of at most 100 µM.

In turn, `O=C(O)c1cc2c([nH]1)C(CCc1ccccc1)CC2` (single isomer, unassigned) [Compound 28, 6-phenethyl-1,4,5,6-tetrahydrocyclopenta[b]pyrrole-2-carboxylic acid] returned an IC50 of at most 1 µM.

On to `O=C(O)c1cc2c([nH]1)C(CCc1ccccc1)CC2` (single isomer, unassigned) [Compound 29, 6-phenethyl-1,4,5,6-tetrahydrocyclopenta[b]pyrrole-2-carboxylic acid], for which the half-maximal inhibitory concentration (IC50) was at most 100 µM.

`O=C(O)c1cc2c([nH]1)CCC2Cc1ccc(F)cc1` (single isomer, unassigned) [Compound 40, 4-(4-fluorobenzyl)-1,4,5,6-tetrahydrocyclopenta[b]pyrrole-2-carboxylic acid]: the concentration for half-maximal inhibition (IC50) is at most 0.1 µM.

Compound `O=C(O)c1cc2c([nH]1)CCC2Cc1ccc(F)cc1` (single isomer, unassigned) [Compound 41, 4-(4-fluorobenzyl)-1,4,5,6-tetrahydrocyclopenta[b]pyrrole-2-carboxylic acid] had an IC50 of at most 1 µM.

Regarding `O=C(O)c1cc2c([nH]1)CCC2Cc1ccc(F)c(F)c1` (single isomer, unassigned) [Compound 43, 4-(3,4-difluorobenzyl)-1,4,5,6-tetrahydrocyclopenta[b]pyrrole-2-carboxylic acid], the IC50 was at most 100 µM.

As to `O=C(O)c1cc2c([nH]1)CCC2Cc1ccc(F)cc1F` (single isomer, unassigned) [Compound 46, 4-(2,4-difluorobenzyl)-1,4,5,6-tetrahydrocyclopenta[b]pyrrole-2-carboxylic acid], the 50% inhibitory concentration (IC50) is at most 100 µM.

`Cc1cc(F)ccc1CC1CCc2[nH]c(C(=O)O)cc21` (single isomer, unassigned) [Compound 52, 4-(4-fluoro-2-methylbenzyl)-1,4,5,6-tetrahydrocyclopenta[b]pyrrole-2-carboxylic acid] yielded an IC50 of at most 100 µM.

Compound `O=C(O)c1cc2c([nH]1)CCC2Cc1ccc(Cl)c(Cl)c1` (single isomer, unassigned) [Compound 58, 4-(3,4-dichlorobenzyl)-1,4,5,6-tetrahydrocyclopenta[b]pyrrole-2-carboxylic acid] returned an IC50 of at most 100 µM.

As to `O=C(O)c1cc2c([nH]1)CCC2Cc1ccc(Br)cc1` (single isomer, unassigned) [Compound 61, 4-(4-bromobenzyl)-1,4,5,6-tetrahydrocyclopenta[b]pyrrole-2-carboxylic acid], the IC50 was at most 100 µM.

Turning to `COc1cccc(CC2CCc3[nH]c(C(=O)O)cc32)c1` (single isomer, unassigned) [Compound 67, 4-(3-methoxybenzyl)-1,4,5,6-tetrahydrocyclopenta[b]pyrrole-2-carboxylic acid], the half-maximal inhibitory concentration (IC50) was at most 100 µM.

`O=C(O)c1cc2c([nH]1)CCC2Cc1ccc2ccccc2c1` (single isomer, unassigned) [Compound 79, 4-(naphthalen-2-ylmethyl)-1,4,5,6-tetrahydrocyclopenta[b]pyrrole-2-carboxylic acid] yielded a half-inhibitory concentration (IC50) of at most 1 µM.

`O=C(O)c1cc2c([nH]1)CCC2Cc1cccc(-c2ccco2)c1` (single isomer, unassigned) [Compound 88, 4-(3-(furan-2-yl)benzyl)-1,4,5,6-tetrahydrocyclopenta[b]pyrrole-2-carboxylic acid] had an IC50 of at most 100 µM.

`O=C(O)c1cc2c([nH]1)CCC2Cc1cccc(-c2ccc[nH]2)c1` (single isomer, unassigned) [Compound 92, 4-(3-(1H-pyrrol-2-yl)benzyl)-1,4,5,6-tetrahydrocyclopenta[b]pyrrole-2-carboxylic acid] had an IC50 of at most 100 µM.

The compound `O=C(O)c1cc2c([nH]1)CCC2c1cccc(F)c1` (single isomer, unassigned) [Compound 95, 4-(3-fluorophenyl)-1,4,5,6-tetrahydrocyclopenta[b]pyrrole-2-carboxylic acid] registered an IC50 of at most 100 µM.

Turning to `O=C(O)c1cc2c([nH]1)CCC2c1cc(F)cc(F)c1` (single isomer, unassigned) [Compound 99, 4-(3,5-difluorophenyl)-1,4,5,6-tetrahydrocyclopenta[b]pyrrole-2-carboxylic acid], the IC50 was at most 100 µM.

On to `O=C(O)c1cc2c([nH]1)C(c1ccc(-c3ccccc3)cc1)CC2` (single isomer, unassigned) [Compound 119, 6-(biphenyl-4-yl)-1,4,5,6-tetrahydrocyclopenta[b]pyrrole-2-carboxylic acid], for which the IC50 is at most 1 µM.

Regarding `O=C(O)c1cc2c([nH]1)C(c1ccc(-c3ccccc3)cc1)CC2` (single isomer, unassigned) [Compound 120, 6-(biphenyl-4-yl)-1,4,5,6-tetrahydrocyclopenta[b]pyrrole-2-carboxylic acid], the IC50 was over 100 µM.

The compound `O=C(O)c1cc2c([nH]1)C(Cc1cccc(Cl)c1)CC2` (single isomer, unassigned) [Compound 122, 6-(3-chlorobenzyl)-1,4,5,6-tetrahydrocyclopenta[b]pyrrole-2-carboxylic acid] came in with an IC50 of at most 1 µM.

For the compound `O=C(O)c1cc2c([nH]1)C(Cc1cccc(Br)c1)CC2` (single isomer, unassigned) [Compound 126, 6-(3-bromobenzyl)-1,4,5,6-tetrahydrocyclopenta[b]pyrrole-2-carboxylic acid], the half-inhibitory concentration (IC50) is at most 100 µM.

As for `O=C(O)c1cc2c([nH]1)C(Cc1cccc(Br)c1)CC2` (single isomer, unassigned) [Compound 127, 6-(3-bromobenzyl)-1,4,5,6-tetrahydrocyclopenta[b]pyrrole-2-carboxylic acid], the concentration for half-maximal inhibition (IC50) is at most 0.1 µM.

For `COc1cccc(CC2CCc3cc(C(=O)O)[nH]c32)c1` (single isomer, unassigned) [Compound 130, 6-(3-methoxybenzyl)-1,4,5,6-tetrahydrocyclopenta[b]pyrrole-2-carboxylic acid], the concentration for half-maximal inhibition (IC50) is at most 100 µM.

Compound `O=C(O)c1cc2c([nH]1)C(CCCc1ccccc1)CC2` (single isomer, unassigned) [Compound 135, 6-(3-phenylpropyl)-1,4,5,6-tetrahydrocyclopenta[b]pyrrole-2-carboxylic acid] registered an IC50 of at most 100 µM.

Consider `O=C(O)c1cc2c([nH]1)C(CCCc1ccccc1)CC2` (single isomer, unassigned) [Compound 136, 6-(3-phenylpropyl)-1,4,5,6-tetrahydrocyclopenta[b]pyrrole-2-carboxylic acid], for which the IC50 is at most 1 µM.

Take `O=C(O)c1cc2c([nH]1)CC1CC21` (single isomer, unassigned) [Compound 139, 1a,4,5,5a-tetrahydro-1H-4-aza-cyclopropa[α]pentalene-3-carboxylic acid]: the concentration for half-maximal inhibition (IC50) is at most 1 µM.

As for `O=C(O)c1cc2c([nH]1)CCC2=O` [Compound 2, 4-oxo-1,4,5,6-tetrahydrocyclopenta[b]pyrrole-2-carboxylic acid], the half-maximal inhibitory concentration (IC50) is at most 100 µM.

Turning to `CC(C)(C)c1c(C(=O)O)[nH]c2c1C(=O)CC2` [Compound 3, 3-tert-butyl-4-oxo-1,4,5,6-tetrahydrocyclopenta[b]pyrrole-2-carboxylic acid], the IC50 was over 100 µM.

`CC(C)C1CCc2[nH]c(C(=O)O)cc21` (stereo not shown) [Compound 10, 4-isopropyl-1,4,5,6-tetrahydrocyclopenta[b]pyrrole-2-carboxylic acid]: the IC50 was at most 1 µM.

Turning to `CC(C)CC1CCc2[nH]c(C(=O)O)cc21` (stereo not shown) [Compound 11, 4-isobutyl-1,4,5,6-tetrahydrocyclopenta[b]pyrrole-2-carboxylic acid], the IC50 is at most 1 µM.

On to `O=C(O)c1cc2c([nH]1)CCC2CC1CCCCC1` (stereo not shown) [Compound 12, 4-(cyclohexylmethyl)-1,4,5,6-tetrahydrocyclopenta[b]pyrrole-2-carboxylic acid], for which the IC50 was at most 1 µM.

With `O=C(O)c1cc2c([nH]1)CC/C2=C\c1ccc(F)cc1` [Compound 13, (E)-4-(4-fluorobenzylidene)-1,4,5,6-tetrahydrocyclopenta[b]pyrrole-2-carboxylic acid], the IC50 was at most 100 µM.

On to `O=C(O)c1cc2c([nH]1)CCC2Cc1ccccc1` (stereo not shown) [Compound 17, 4-benzyl-1,4,5,6-tetrahydrocyclopenta[b]pyrrole-2-carboxylic acid], for which the IC50 was at most 0.1 µM.

As to `O=C(O)c1cc2c([nH]1)CC(F)(F)C2` [Compound 21, 5,5-difluoro-1,4,5,6-tetrahydrocyclopenta[b]pyrrole-2-carboxylic acid], the 50% inhibitory concentration (IC50) was at most 1 µM.

On to `CC1Cc2cc(C(=O)O)[nH]c2C1` (stereo not shown) [Compound 22, 5-methyl-1,4,5,6-tetrahydrocyclopenta[b]pyrrole-2-carboxylic acid], for which the IC50 is at most 1 µM.

For the compound `O=C(O)c1cc2c([nH]1)CC(Cc1ccccc1)C2` (stereo not shown) [Compound 23, 5-benzyl-1,4,5,6-tetrahydrocyclopenta[b]pyrrole-2-carboxylic acid], the half-inhibitory concentration (IC50) was at most 100 µM.

(Values after patent publication US7902252B2, “Inhibitors of D-amino acid oxidase” (Sepracor, Inc., priority 2007, dated 2011).)
